We go through 28 compounds from patent US10287295B2, “TGF-β inhibitors” (Rigel Pharmaceuticals, Inc., priority 2015, dated 2019).

The subject of assay [1] is GDF8 signaling (GDF pSMAD, MPC11). Put plainly: AlphaScreen SureFire SMAD3 (p-Ser423/425) assay, inhibition of GDF8 signaling. The format is cell-based. The conditions noted are these: Mus musculus, MPC-11, inhibition of GDF8 signaling, p-SMAD3 readout. (Bead proximity is the source of the signal in Alpha formats.)
Assay [2] has as its system TGF-β signaling (TGF-β pSMAD, MPC-11). Put plainly: AlphaScreen SureFire SMAD3 (p-Ser423/425) assay, inhibition of TGF-β signaling. It is filed as cell-based. The conditions noted are these: Mus musculus, MPC-11, inhibition of TGF-β signaling, p-SMAD3 readout.

Structures are written as SMILES.

The term IC50 denotes the midpoint of a concentration-inhibition curve. Read a high IC50 as a need for much substance.

`CCc1nc(-c2cc(F)cc(Cl)c2)c(-c2ccc3nccnc3c2)[nH]1` [Compound 141, 6-(4-(3-Chloro-5-fluorophenyl)-2-ethyl-1H-imidazol-5-yl)quinoxaline]: the IC50 in assay [1] was determined as 660 nM; in assay [2], 2910 nM.

Turning to `CCc1nc(-c2cc(C)cc(F)c2)c(-c2ccc3[nH]ncc3c2)[nH]1` [Compound 142, 5-(2-Ethyl-4-(3-fluoro-5-methylphenyl)-1H-imidazol-5-yl)-1H-indazole], the values for the IC50 in assay [1] and in assay [2] were 670 nM and 4390 nM, respectively.

Turning to `CCc1nc(-c2cc(C)cc(F)c2)c(-c2ccc3cn[nH]c3c2)[nH]1` [Compound 143, 6-(2-Ethyl-4-(3-fluoro-5-methylphenyl)-1H-imidazol-5-yl)-1H-indazole], the IC50 was 450 nM in assay [1] and 3140 nM in assay [2].

As to `CCc1nc(-c2cc(C)cc(F)c2)c(-c2ccc3ncnn3c2)[nH]1` [Compound 144, 6-(2-Ethyl-4-(3-fluoro-5-methylphenyl)-1H-imidazol-5-yl)-[1,2,4]triazolo[1,5-a]pyridine], the IC50 came out at 310 nM in assay [1] and 1530 nM in assay [2].

On to `CCc1nc(-c2cc(C)cc(F)c2)c(-c2ccc3ncsc3c2)[nH]1` [Compound 145, 6-(2-Ethyl-4-(3-fluoro-5-methylphenyl)-1H-imidazol-5-yl)benzo[d]thiazole], for which the IC50 in assay [1] stood at 530 nM; in assay [2], 2950 nM.

For the compound `CCc1nc(-c2cc(C)cc(F)c2)c(-c2ccc3nccn3c2)[nH]1` [Compound 146, 6-(2-Ethyl-4-(3-fluoro-5-methylphenyl)-1H-imidazol-5-yl)imidazo[1,2-a]pyridine], the values for the IC50 in assay [1] and in assay [2] were 1000 nM and 5960 nM, respectively.

Turning to `CCc1nc(-c2cc(C)cc(F)c2)c(-c2ccc3nccnc3c2)[nH]1` [Compound 147, 6-(2-Ethyl-4-(3-fluoro-5-methylphenyl)-1H-imidazol-5-yl)quinoxaline], the IC50 in assay [1] was determined as 550 nM; in assay [2], 2210 nM.

Take `Cc1nc(-c2cc(F)cc(F)c2)c(-c2ccc3[nH]ncc3c2)[nH]1` [Compound 148, 5-(4-(3,5-Difluorophenyl)-2-methyl-1H-imidazol-5-yl)-1H-indazole]: the IC50 in assay [1] amounted to 730 nM; in assay [2] it was 2840 nM.

Consider `CCc1nc(-c2cc(F)cc(F)c2)c(-c2ccc3ncsc3c2)[nH]1` [Compound 149, 6-(4-(3,5-Difluorophenyl)-2-ethyl-1H-imidazol-5-yl)benzo[d]thiazole], for which the IC50 in assay [1] stood at 720 nM; in assay [2] it was 3220 nM.

In the case of `FC(F)(F)c1nc(-c2cccc(Cl)c2)c(-c2ccc3ncnn3c2)[nH]1` [Compound 150, 6-(4-(3-Chlorophenyl)-2-(trifluoromethyl)-1H-imidazol-5-yl)-[1,2,4]triazolo[1,5-a]pyridine], the IC50 in assay [1] was 350 nM; in assay [2] it was 850 nM.

Consider `Fc1ccc(-c2nc(C(F)(F)F)[nH]c2-c2ccc3ncnn3c2)cc1` [Compound 151, 6-(4-(4-Fluorophenyl)-2-(trifluoromethyl)-1H-imidazol-5-yl)-[1,2,4]triazolo[1,5-a]pyridine], for which the IC50 amounted to 590 nM in assay [1] and 1400 nM in assay [2].

Regarding `Cc1cccc(-c2nc(C(C)C)[nH]c2-c2ccc3ncnn3c2)c1` [Compound 152, 6-(2-Isopropyl-4-(m-tolyl)-1H-imidazol-5-yl)-[1,2,4]triazolo[1,5-a]pyridine], the IC50 in assay [1] amounted to 190 nM; in assay [2], 380 nM.

On to `Cc1cccc(-c2ncsc2-c2ccc3cn[nH]c3c2)c1` [Compound 153, 5-(1H-indazol-6-yl)-4-(m-tolyl)thiazole], for which the figures for the IC50 in assay [1] and in assay [2] were 11.3 nM and 207 nM, respectively.

Regarding `Cc1cccc(-c2ncsc2-c2ccc3[nH]ncc3c2)c1` [Compound 154, 5-(1H-indazol-5-yl)-4-(m-tolyl)thiazole], the IC50 in assay [1] was determined as 14.5 nM; in assay [2] it was 116 nM.

Consider `Cc1cc(-c2nc(N)sc2-c2ccc3nccn3c2)ccc1F` [Compound 155, 4-(4-fluoro-3-methylphenyl)-5-(imidazo[1,2-a]pyridin-6-yl)thiazol-2-amine], for which the IC50 is 22.9 nM in assay [1] and 72.4 nM in assay [2].

In the case of `Cc1cc(-c2ncsc2-c2ccc3[nH]ncc3c2)ccc1F` [Compound 156, 4-(4-fluoro-3-methylphenyl)-5-(1H-indazol-5-yl)thiazole], the IC50 was 25.3 nM in assay [1] and 134 nM in assay [2].

On to `COc1ccc(-c2nc(N)sc2-c2ccc3[nH]ncc3c2)cc1` [Compound 157, 5-(1H-indazol-5-yl)-4-(4-methoxyphenyl)thiazol-2-amine], for which the IC50 is 25.6 nM in assay [1] and 160 nM in assay [2].

Consider `Cc1cc(-c2nc(N)sc2-c2ccc3nccnc3c2)ccc1F` [Compound 158, 4-(4-fluoro-3-methylphenyl)-5-(quinoxalin-6-yl)thiazol-2-amine], for which the IC50 in assay [1] amounted to 36 nM; in assay [2], 228 nM.

For the compound `Cc1cc(-c2ncsc2-c2ccc3cn[nH]c3c2)ccc1F` [Compound 159, 4-(4-fluoro-3-methylphenyl)-5-(1H-indazol-6-yl)thiazole], the results for the IC50 in assay [1] and in assay [2] were 36.7 nM and 171 nM, respectively.

Consider `Cc1cc(-c2nc(N)sc2-c2ccc3[nH]ncc3c2)ccc1F` [Compound 160, 4-(4-fluoro-3-methylphenyl)-5-(1H-indazol-5-yl)thiazol-2-amine], for which the figures for the IC50 in assay [1] and in assay [2] were 38.5 nM and 99.8 nM, respectively.

For the compound `Cc1cccc(-c2ncsc2-c2ccc3ncsc3c2)c1` [Compound 161, 6-(4-(m-tolyl)thiazol-5-yl)benzo[d]thiazole], the IC50 in assay [1] is 46.8 nM; in assay [2] it was 427 nM.

Consider `Cc1cc(-c2nc(N)sc2-c2ccc3ncsc3c2)ccc1F` [Compound 162, 5-(benzo[d]thiazol-6-yl)-4-(4-fluoro-3-methylphenyl)thiazol-2-amine], for which the IC50 in assay [1] amounted to 52.3 nM; in assay [2] it was 127 nM.

On to `COc1ccc(-c2nc(N)sc2-c2ccc3nccn3c2)cc1` [Compound 163, 5-(imidazo[1,2-a]pyridin-6-yl)-4-(4-methoxyphenyl)thiazol-2-amine], for which the IC50 is 54 nM in assay [1] and 168 nM in assay [2].

As for `Nc1nc(-c2cccc(Cl)c2)c(-c2ccc3nccn3c2)s1` [Compound 164, 4-(3-chlorophenyl)-5-(imidazo[1,2-a]pyridin-6-yl)thiazol-2-amine], the results for the IC50 in assay [1] and in assay [2] were 66.3 nM and 218 nM, respectively.

Take `Cc1cc(-c2ncsc2-c2ccc3ncsc3c2)ccc1F` [Compound 165, 6-(4-(4-fluoro-3-methylphenyl)thiazol-5-yl)benzo[d]thiazole]: the values for the IC50 in assay [1] and in assay [2] were 69.6 nM and 262 nM, respectively.

As for `Cc1cc(-c2ncsc2-c2ccc3nccn3c2)ccc1F` [Compound 167, 4-(4-fluoro-3-methylphenyl)-5-(imidazo[1,2-a]pyridin-6-yl)thiazole], the IC50 turned out to be 78 nM in assay [1] and 215 nM in assay [2].

On to `Nc1nc(-c2cccc(Cl)c2)c(-c2ccc3[nH]ncc3c2)s1` [Compound 168, 4-(3-chlorophenyl)-5-(1H-indazol-5-yl)thiazol-2-amine], for which the IC50 came to 80 nM in assay [1] and 338 nM in assay [2].

As for `Nc1nc(-c2cccc(Cl)c2)c(-c2ccc3nccnc3c2)s1` [Compound 169, 4-(3-chlorophenyl)-5-(quinoxalin-6-yl)thiazol-2-amine], the IC50 in assay [1] was 95.1 nM; in assay [2] it was 236 nM.
